pEC50: −log10 of the molar value. Where two headings read alike, the source gives them in different places.
Tests used:
K2P10.1 (TREK-2) = target: T1, K2P10.1 (TREK-2) (Mus musculus, UniProt Q8BUW1); assay: Two-electrode voltage clamp, Xenopus oocytes expressing K2P10.1 (TREK-2); assay type: cell-based, Murine
T1 construct: expressed in transfected cells; host or cells: Xenopus oocytes
T1 sequence (Q8BUW1 1-535): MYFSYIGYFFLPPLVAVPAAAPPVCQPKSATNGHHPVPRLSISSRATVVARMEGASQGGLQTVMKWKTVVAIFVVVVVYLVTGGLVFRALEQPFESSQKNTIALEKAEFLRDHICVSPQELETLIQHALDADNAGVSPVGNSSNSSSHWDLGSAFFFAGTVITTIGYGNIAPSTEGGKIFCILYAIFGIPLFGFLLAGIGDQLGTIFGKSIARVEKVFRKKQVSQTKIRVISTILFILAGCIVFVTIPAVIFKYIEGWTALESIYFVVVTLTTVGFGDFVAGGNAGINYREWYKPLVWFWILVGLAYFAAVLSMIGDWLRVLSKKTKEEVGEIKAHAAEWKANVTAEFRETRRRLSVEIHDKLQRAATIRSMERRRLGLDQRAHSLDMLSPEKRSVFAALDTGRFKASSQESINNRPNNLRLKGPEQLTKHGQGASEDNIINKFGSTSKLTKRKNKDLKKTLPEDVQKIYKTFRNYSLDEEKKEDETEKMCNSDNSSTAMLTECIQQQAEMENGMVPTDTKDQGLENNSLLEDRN
Experimental: (§1) FIG. 7 ML67-33 is a selective activator of heat- and mechanosensitive K2P channels. a-f, Exemplar I-V curves showing the effect of ML67-33 on a, K2P10.1 (TREK-2), b, K2P4.1 (TRAAK), c, K2P3.1 (TASK-1), d, K2P9.1 (TASK-3), e, K2P5.1 (TASK-2), and f, K2P18.1 (TRESK) measured in Xenopus oocytes in 2 mM [K^+]o pH 7.4. Currents were elicited by a voltage ramp from −150 to 50 mV, from a holding potential of −80 mV. g, Quantification of the effect of ML67-33 on the indicated channels. Data (mean±s.e., n≧6, N≧2) was normalized to basal channel activity and fitted to the Hill equation. […] Error bars indicate s.e., n≧6, N≧2.
(§2) Murine K2P channels were cloned into pGEMHE/pMO {Bagriantsev, 2011}, IRES-GFP (Invitrogen), or pYES2-MET25 (high copy 2μ, URA3) {Minor, 1999} for expression in oocytes, HEK-293T cells, and yeast, respectively, using standard molecular biology procedures, and verified by DNA sequencing.
(§3) Two-electrode voltage clamp recordings were performed from defolliculated stage V-VI Xenopus oocytes 24-48 hours after injection with 0.015-6.0 ng cRNA, using microelectrodes (0.3-3.0 MΩ) filled with 3M KCl. Data was acquired using the GeneClamp 500B (MDS Analytical Technologies) amplifier controlled by the pClamp software (Molecular Devices), and digitized at 1 kHz using Digidata 1332A (MDS Analytical Technologies). Recording solutions (mM): 2K (96 NaCl, 2 KCl, 1.8 CaCl2, 2 MgCl2), 90K (90 KCl, 8 NaCl, 1.8 CaCl2, 2 MgCl2), were buffered 5 mM HEPES pH 7.4. For K2P recordings, currents we elicited by a 1 second long ramp from −150 to +50 mV from a holding potential of −80 mV (2K), or −100 to +50 mV from a holding potential of 0 mV (90K). For KCNQ2 recordings, currents were elicited by a step protocol from −120 to 60 mV, in 20 mV increments, from a holding potential of −80 mV. Patch-clamp recordings from HEK-293T cells were performed using microelectrodes (2-3 MΩ) filled with 1M KCl. Data was acquired using the Axopatch 200B amplifier controlled by pClamp software, and digitized at 1 kHz using Digidata 1332A. Recording solutions (mM): intracellular (145 KCl, 5 EGTA, 3 MgCl2,) extracellular (150 NaCl, 5 KCl, 3 MgCl2, 1 CaCl2) were buffered with 5 mM HEPES pH 7.2 and 7.4, respectively. Currents were elicited by a 1 second long ramp from −150 to +50 mV from a holding potential of −80 mV. Data were fitted with a modified Hill's equation: I=Imin+(Imax−Imin)/(1+10^((Log EC50−Log [C])*H)), where Imax and Imin are maximal and minimal current values, respectively, EC50 is a half-maximal effective concentration of the compound, and H is the Hill coefficient.
(§4) There are six K2P subgroups {Noel, 2011} (FIG. 11). […]

K2P2.1 (TREK-1) [1] = target: T2, K2P2.1 (TREK-1) (Mus musculus, UniProt P97438); assay: Two-electrode voltage clamp of Xenopus oocytes expressing K2P2.1 (TREK-1); assay type: cell-based, Murine; details: two-electrode voltage clamp, Xenopus oocytes
T2 construct: expressed in transfected cells; host or cells: Xenopus oocytes (cRNA injection, pGEMHE/pMO)
T2 sequence (P97438 1-411 isoform P97438-2): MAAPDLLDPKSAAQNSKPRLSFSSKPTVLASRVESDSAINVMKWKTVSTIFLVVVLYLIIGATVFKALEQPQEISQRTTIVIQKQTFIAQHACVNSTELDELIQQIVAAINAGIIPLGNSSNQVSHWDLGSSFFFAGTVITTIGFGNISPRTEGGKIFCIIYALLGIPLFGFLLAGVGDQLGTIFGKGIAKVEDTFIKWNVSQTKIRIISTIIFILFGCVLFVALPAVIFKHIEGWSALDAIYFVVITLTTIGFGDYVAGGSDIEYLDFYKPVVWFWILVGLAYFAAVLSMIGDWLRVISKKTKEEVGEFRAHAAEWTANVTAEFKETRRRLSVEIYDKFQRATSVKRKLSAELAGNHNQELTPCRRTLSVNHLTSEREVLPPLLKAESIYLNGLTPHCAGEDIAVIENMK
Experimental: (§5) Two-electrode voltage clamp recordings were performed from defolliculated stage V-VI Xenopus oocytes 24-48 hours after injection with 0.015-6.0 ng cRNA, using microelectrodes (0.3-3.0 MΩ) filled with 3M KCl. […] Recording solutions (mM): 2K (96 NaCl, 2 KCl, 1.8 CaCl2, 2 MgCl2), 90K (90 KCl, 8 NaCl, 1.8 CaCl2, 2 MgCl2), were buffered 5 mM HEPES pH 7.4. For K2P recordings, currents we elicited by a 1 second long ramp from −150 to +50 mV from a holding potential of −80 mV (2K), or −100 to +50 mV from a holding potential of 0 mV (90K). For KCNQ2 recordings, currents were elicited by a step protocol from −120 to 60 mV, in 20 mV increments, from a holding potential of −80 mV. […] Currents were elicited by a 1 second long ramp from −150 to +50 mV from a holding potential of −80 mV.

K2P3.1 (TASK-1) = target: T3, K2P3.1 (TASK-1) (Mus musculus, UniProt O35111); assay: Two-electrode voltage clamp, Xenopus oocytes expressing K2P3.1 (TASK-1); assay type: cell-based, Murine
T3 construct: expressed in transfected cells; host or cells: Xenopus oocytes
T3 sequence (O35111 whole entry): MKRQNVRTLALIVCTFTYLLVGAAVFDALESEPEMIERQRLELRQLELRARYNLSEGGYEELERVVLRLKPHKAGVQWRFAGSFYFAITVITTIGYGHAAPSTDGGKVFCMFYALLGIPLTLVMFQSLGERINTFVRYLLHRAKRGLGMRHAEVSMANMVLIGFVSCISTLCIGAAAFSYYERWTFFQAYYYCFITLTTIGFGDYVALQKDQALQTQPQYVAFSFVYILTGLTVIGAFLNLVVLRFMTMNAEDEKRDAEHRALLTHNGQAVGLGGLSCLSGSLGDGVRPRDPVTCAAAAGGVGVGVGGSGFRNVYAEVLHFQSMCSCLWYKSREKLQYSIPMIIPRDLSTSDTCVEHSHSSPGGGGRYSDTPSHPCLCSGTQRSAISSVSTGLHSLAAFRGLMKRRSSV
Experimental: as §1, §2, §3, §4

Kv7.2 (KCNQ2) = target: T4, Kv7.2 (KCNQ2) (Homo sapiens, UniProt O43526); assay: Two-electrode voltage clamp, Xenopus oocytes expressing Kv7.2 (KCNQ2); assay type: cell-based
T4 construct: expressed in transfected cells; host or cells: Xenopus oocytes
Experimental: FIG. 12 Exemplar I-V curves showing the effect of 100 μM ML67-33 Kv7.2 (KCNQ2) measured by two-electrode voltage clamp in Xenopus oocytes in 2 mM [K^+]o pH 7.4. Currents were elicited by a step protocol from −120 to 60 mV, in 20 mV increments, from a holding potential of −80 mV.
as §3

TREK-1 = target: T5, TREK-1 (Mus musculus, UniProt P97438); assay: Modulation of TREK-1 by select compounds (agonist activity), Table 3; assay type: cell-based, Murine
T5 construct: expressed in transfected cells
T5 sequence (P97438 1-411 isoform P97438-2): T2 sequence (P97438 1-411 isoform P97438-2)
Experimental: as §5

Solubility (remarks) = assay type: physicochemical
purified TRAAK channels = target: T6, purified TRAAK channels (Homo sapiens, UniProt Q9NYG8); assay: UV crosslinking and labeling of purified TRAAK channel; assay type: binding; details: TRAAK 3 μM, 254 nm UV 30 seconds, streptavidin-HRP detection
T6 sequence (Q9NYG8 1-393): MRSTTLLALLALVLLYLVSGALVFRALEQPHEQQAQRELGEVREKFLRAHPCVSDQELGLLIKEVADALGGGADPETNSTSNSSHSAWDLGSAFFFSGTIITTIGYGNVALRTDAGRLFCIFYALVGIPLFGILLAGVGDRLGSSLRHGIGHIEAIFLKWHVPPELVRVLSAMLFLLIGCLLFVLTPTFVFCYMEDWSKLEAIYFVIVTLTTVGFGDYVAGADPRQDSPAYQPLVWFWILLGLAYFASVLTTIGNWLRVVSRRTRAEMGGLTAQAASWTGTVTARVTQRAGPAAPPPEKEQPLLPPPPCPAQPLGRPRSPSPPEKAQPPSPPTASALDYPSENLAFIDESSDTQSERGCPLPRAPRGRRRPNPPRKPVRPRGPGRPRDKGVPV
Experimental: FIG. 15 Crosslinking and labeling of TRAAK channel with ML67-151; crosslinking of ML67-151 to purified TRAAK channels (3 μM) following exposure to 254 nm UV light for 30 seconds; left is SDS-PAGE of purified TRAAK, top middle is streptavidin-HRP detection following addition of clickable biotin; bottom middle is Ponceau S staining
Crosslinking of ML67-151 to purified TRAAK channels (3 μM) following exposure to 254 nm UV light for 30 seconds is shown in the top middle blot of FIG. 15, including streptavidin-HRP detection following addition of clickable biotin.

K2P2.1 (TREK-1) [2] = target: T7, K2P2.1 (TREK-1) (Homo sapiens, UniProt O95069); details: cited from earlier work
T7 sequence (O95069 1-426): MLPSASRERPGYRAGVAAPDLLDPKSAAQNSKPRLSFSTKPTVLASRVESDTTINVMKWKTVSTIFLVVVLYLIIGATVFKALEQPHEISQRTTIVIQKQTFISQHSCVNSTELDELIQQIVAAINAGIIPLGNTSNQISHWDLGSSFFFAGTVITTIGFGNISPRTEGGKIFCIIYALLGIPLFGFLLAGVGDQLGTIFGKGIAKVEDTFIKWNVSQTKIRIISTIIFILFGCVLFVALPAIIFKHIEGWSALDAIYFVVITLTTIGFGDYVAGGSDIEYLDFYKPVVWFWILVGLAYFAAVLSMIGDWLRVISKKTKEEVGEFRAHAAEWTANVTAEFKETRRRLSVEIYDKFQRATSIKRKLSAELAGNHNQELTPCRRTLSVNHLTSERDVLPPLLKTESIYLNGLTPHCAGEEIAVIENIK

O=C(O)CCn1c2ccc(Cl)cc2c2cc(Cl)ccc21 [ML67, 3-(3,6-dichlorocarbazol-9-yl)propanoic acid]
pEC50 (K2P10.1 (TREK-2); Xenopus oocytes, 2 mM [K+]o pH 7.4): < 3.60 | Emax (fold) at 500 μM (K2P10.1 (TREK-2); at 500 μM): 10.1 ± 1.1 at 500 μM fold | effect on K2P2.1 (TREK-1) function / activity (in words) (K2P2.1 (TREK-1) [1]): activated the channel | functional effect / activation (in words) (K2P3.1 (TASK-1); ML67-33 applied at 100 μM, ML67 concentration not stated): not | Emax (fold) at 500 μM (K2P3.1 (TASK-1); at 500 μM): 1.2 ± 0.0 at 500 μM fold | effect on Kv7.2 (KCNQ2) (in words) (Kv7.2 (KCNQ2); ML67-33 at 100 μM, ML67 concentration not stated): no effect | Emax (fold) at 500 μM (Kv7.2 (KCNQ2); at 500 μM): 1.8 ± 0.0 at 500 μM fold | pEC50 (TREK-1; agonist activity on TREK-1): 3.67

O=C(O)/C=C/n1c2ccc(Cl)cc2c2cc(Cl)ccc21 [ML67-16, (E)-3-(3,6-dichlorocarbazol-9-yl)prop-2-enoic acid]
solubility (in words) (Solubility (remarks)): insoluble

O=C(CCn1c2ccc(Cl)cc2c2cc(Cl)ccc21)NO [ML67-19, 3-(3,6-dichlorocarbazol-9-yl)-N-hydroxy-propanamide]
solubility (in words) (Solubility (remarks)): insoluble

C#Cc1ccc(S(=O)(=O)NC(=O)CCN2c3ccc(N=[N+]=[N-])cc3C3(CCCCC3)c3cc(N=[N+]=[N-])ccc32)cc1 [ML67-151, 1-(2-azido-10-{2-[(4-ethynylbenzene-sulfonyl)carbamoyl]ethyl}-10H-spiro[acridine-9,1′-cyclohexane]-7-yl)triaza-1,2-dien-2-ium]
% activity at 50 μM (TREK-1; 50 μM): About 50% activity of ML67-33 at 50 μM | crosslinking and labeling of TRAAK channel (in words) (purified TRAAK channels): capable of crosslinking and labeling TRAAK channel

CCCCC/C=C\C/C=C\C/C=C\C/C=C\CCCC(=O)O [arachidonic acid]
activation of K2P2.1 (TREK-1) (K2P2.1 (TREK-1) [2]; at 10-20 μM): 3-12 fold

ClC(Cl)Cl [chloroform]
activation of K2P2.1 (TREK-1) (K2P2.1 (TREK-1) [2]; at 1.6 mM): 5.5 fold
